Values quoted from earlier work in PubChem BioAssay AID1259409 (Chemical Carcinogenesis Research Information System (CCRIS), 2018).

System: rodent chemically induced tumor inhibition, incidence and multiplicity
Assay: CCRIS tumor inhibitor studies

Structure (SMILES) | tumour outcome (control, treated, inhibition, significance) (Carcinogen: CADMIUM CHLORIDE, 10108-64-2, Dose [Inhibitor]: 0.1 MMOL/KG IN 0.9% STERILE SALINE ADMINISTERED IN 3 SEPARATE DOSES AT 6 HR PRIOR TO, CONCURRENTLY WITH AND 18 HR POST C, Route [Inhibitor]: SUBCUTANEOUS, Species: RAT, Strain/Sex: WISTAR/MALE, Target Tissue: Type of Lesion: PROSTATE GLAND: ADENOMA, Dose [Carcinogen]: 30 UMOL/KG IN 0.9% STERILE SALINE ONCE, Promoter: NONE USED) | tumour outcome (control, treated, inhibition, significance) (Carcinogen: CADMIUM CHLORIDE, 10108-64-2, Dose [Inhibitor]: 0.3 MMOL/KG IN 0.9% STERILE SALINE ADMINISTERED IN 3 SEPARATE DOSES AT 6 HR PRIOR TO, CONCURRENTLY WITH AND 18 HR POST C, Route [Inhibitor]: SUBCUTANEOUS, Species: RAT, Strain/Sex: WISTAR/MALE, Target Tissue: Type of Lesion: PROSTATE GLAND: ADENOMA, Dose [Carcinogen]: 30 UMOL/KG IN 0.9% STERILE SALINE ONCE, Promoter: NONE USED) | tumour outcome (control, treated, inhibition, significance) (Carcinogen: CADMIUM CHLORIDE, 10108-64-2, Dose [Inhibitor]: 1.0 MMOL/KG IN 0.9% STERILE SALINE ADMINISTERED IN 3 SEPARATE DOSES AT 6 HR PRIOR TO, CONCURRENTLY WITH AND 18 HR POST C, Route [Inhibitor]: SUBCUTANEOUS, Species: RAT, Strain/Sex: WISTAR/MALE, Target Tissue: Type of Lesion: PROSTATE GLAND: ADENOMA, Dose [Carcinogen]: 30 UMOL/KG IN 0.9% STERILE SALINE ONCE, Promoter: NONE USED) | tumour outcome (control, treated, inhibition, significance) (Carcinogen: CADMIUM CHLORIDE, 10108-64-2, Dose [Inhibitor]: 100 PPM IN DRINKING WATER BEGINNING 2 WK PRIOR TO CARCINOGEN DOSE AND CONTINUING FOR DURATION OF STUDY (STUDY DURATION:, Route [Inhibitor]: ORAL, Species: RAT, Strain/Sex: WISTAR/MALE, Target Tissue: Type of Lesion: PROSTATE GLAND: ADENOMA, Dose [Carcinogen]: 30 UMOL/KG IN 0.9% STERILE SALINE ONCE, Promoter: NONE USED) | tumour outcome (control, treated, inhibition, significance) (Carcinogen: CADMIUM(II) CHLORIDE, 10108-64-2, Dose [Inhibitor]: 0.1 MMOL/KG IN 0.9% STERILE SALINE ADMINISTERED IN 3 SEPARATE DOSES AT 6 HR PRIOR TO CARCINOGEN DOSE, CONCURRENTLY WITH, Route [Inhibitor]: SUBCUTANEOUS, Species: RAT, Strain/Sex: WISTAR/MALE, Target Tissue: Type of Lesion: INJECTION SITE: SARCOMA OR EPIDERMAL TUMOR, Dose [Carcinogen]: 30 UMOL/KG IN 0.9% STERILE SALINE ONCE, Promoter: NONE USED) | tumour outcome (control, treated, inhibition, significance) (Carcinogen: CADMIUM(II) CHLORIDE, 10108-64-2, Dose [Inhibitor]: 0.1 MMOL/KG IN 0.9% STERILE SALINE ADMINISTERED IN 3 SEPARATE DOSES AT 6 HR PRIOR TO CARCINOGEN DOSE, CONCURRENTLY WITH, Route [Inhibitor]: SUBCUTANEOUS, Species: RAT, Strain/Sex: WISTAR/MALE, Target Tissue: Type of Lesion: TESTES: LEYDIG CELL ADENOMA OR MIXED SERTOLI-LEYDIG CELL TUMOR, Dose [Carcinogen]: 30 UMOL/KG IN 0.9% STERILE SALINE ONCE, Promoter: NONE USED) | tumour outcome (control, treated, inhibition, significance) (Carcinogen: CADMIUM(II) CHLORIDE, 10108-64-2, Dose [Inhibitor]: 0.3 MMOL/KG IN 0.9% STERILE SALINE ADMINISTERED IN 3 SEPARATE DOSES AT 6 HR PRIOR TO CARCINOGEN DOSE, CONCURRENTLY WITH, Route [Inhibitor]: SUBCUTANEOUS, Species: RAT, Strain/Sex: WISTAR/MALE, Target Tissue: Type of Lesion: INJECTION SITE: SARCOMA, Dose [Carcinogen]: 30 UMOL/KG IN 0.9% STERILE SALINE ONCE, Promoter: NONE USED) | tumour outcome (control, treated, inhibition, significance) (Carcinogen: CADMIUM(II) CHLORIDE, 10108-64-2, Dose [Inhibitor]: 0.3 MMOL/KG IN 0.9% STERILE SALINE ADMINISTERED IN 3 SEPARATE DOSES AT 6 HR PRIOR TO CARCINOGEN DOSE, CONCURRENTLY WITH, Route [Inhibitor]: SUBCUTANEOUS, Species: RAT, Strain/Sex: WISTAR/MALE, Target Tissue: Type of Lesion: TESTES: LEYDIG CELL ADENOMA, Dose [Carcinogen]: 30 UMOL/KG IN 0.9% STERILE SALINE ONCE, Promoter: NONE USED) | tumour outcome (control, treated, inhibition, significance) (Carcinogen: CADMIUM(II) CHLORIDE, 10108-64-2, Dose [Inhibitor]: 1.0 MMOL/KG IN 0.9% STERILE SALINE ADMINISTERED IN 3 SEPARATE DOSES AT 6 HR PRIOR TO CARCINOGEN DOSE, CONCURRENTLY WITH, Route [Inhibitor]: SUBCUTANEOUS, Species: RAT, Strain/Sex: WISTAR/MALE, Target Tissue: Type of Lesion: INJECTION SITE: SARCOMA OR HEMANGIOMA OR EPIDERMAL TUMOR, Dose [Carcinogen]: 30 UMOL/KG IN 0.9% STERILE SALINE ONCE, Promoter: NONE USED) | tumour outcome (control, treated, inhibition, significance) (Carcinogen: CADMIUM(II) CHLORIDE, 10108-64-2, Dose [Inhibitor]: 1.0 MMOL/KG IN 0.9% STERILE SALINE ADMINISTERED IN 3 SEPARATE DOSES AT 6 HR PRIOR TO CARCINOGEN DOSE, CONCURRENTLY WITH, Route [Inhibitor]: SUBCUTANEOUS, Species: RAT, Strain/Sex: WISTAR/MALE, Target Tissue: Type of Lesion: INJECTION SITE: SARCOMA, Dose [Carcinogen]: 30 UMOL/KG IN 0.9% STERILE SALINE ONCE, Promoter: NONE USED) | tumour outcome (control, treated, inhibition, significance) (Carcinogen: CADMIUM(II) CHLORIDE, 10108-64-2, Dose [Inhibitor]: 1.0 MMOL/KG IN 0.9% STERILE SALINE ADMINISTERED IN 3 SEPARATE DOSES AT 6 HR PRIOR TO CARCINOGEN DOSE, CONCURRENTLY WITH, Route [Inhibitor]: SUBCUTANEOUS, Species: RAT, Strain/Sex: WISTAR/MALE, Target Tissue: Type of Lesion: TESTES: LEYDIG CELL ADENOMA OR SEMINOMA, Dose [Carcinogen]: 30 UMOL/KG IN 0.9% STERILE SALINE ONCE, Promoter: NONE USED) | tumour outcome (control, treated, inhibition, significance) (Carcinogen: CADMIUM(II) CHLORIDE, 10108-64-2, Dose [Inhibitor]: 1.0 MMOL/KG IN 0.9% STERILE SALINE ADMINISTERED IN 3 SEPARATE DOSES AT 6 HR PRIOR TO CARCINOGEN DOSE, CONCURRENTLY WITH, Route [Inhibitor]: SUBCUTANEOUS, Species: RAT, Strain/Sex: WISTAR/MALE, Target Tissue: Type of Lesion: TESTES: LEYDIG CELL ADENOMA, Dose [Carcinogen]: 30 UMOL/KG IN 0.9% STERILE SALINE ONCE, Promoter: NONE USED) | tumour outcome (control, treated, inhibition, significance) (Carcinogen: CADMIUM(II) CHLORIDE, 10108-64-2, Dose [Inhibitor]: 100 PPM IN DRINKING WATER BEGINNING 2 WK PRIOR TO CARCINOGEN DOSE AND CONTINUING FOR DURATION OF STUDY (STUDY DURATION:, Route [Inhibitor]: ORAL, Species: RAT, Strain/Sex: WISTAR/MALE, Target Tissue: Type of Lesion: INJECTION SITE: SARCOMA AND FIBROMA, Dose [Carcinogen]: 30 UMOL/KG IN 0.9% STERILE SALINE ONCE, Promoter: NONE USED) | tumour outcome (control, treated, inhibition, significance) (Carcinogen: CADMIUM(II) CHLORIDE, 10108-64-2, Dose [Inhibitor]: 100 PPM IN DRINKING WATER BEGINNING 2 WK PRIOR TO CARCINOGEN DOSE AND CONTINUING FOR DURATION OF STUDY (STUDY DURATION:, Route [Inhibitor]: ORAL, Species: RAT, Strain/Sex: WISTAR/MALE, Target Tissue: Type of Lesion: TESTES: LEYDIG CELL ADENOMA, Dose [Carcinogen]: 30 UMOL/KG IN 0.9% STERILE SALINE ONCE, Promoter: NONE USED) | tumour outcome (control, treated, inhibition, significance) (Carcinogen: 7,12-DIMETHYLBENZ[A]ANTHRACENE, 57-97-6, Dose [Inhibitor]: 140 NMOL IN 0.2 ML ACETONE 2/WK (D 1 AND D 4 OF EACH WK) 1 HR BEFORE EACH PROMOTER APPLICATION STARTING 14 D AFTER CARCI, Route [Inhibitor]: DERMAL, Species: MOUSE, Strain/Sex: CD-1/FEMALE, Target Tissue: Type of Lesion: SKIN: PAPILLOMA, Dose [Carcinogen]: 0.2 UMOL IN 0.2 ML ACETONE ONCE, Promoter: 12-O-TETRADECANOYLPHORBOL-13-ACETATE, 16561-29-8)
CC(=O)[O-].CC(=O)[O-].O.O.[Zn+2] | 7/30 (23%), 6/30 (20%), 13%, not calculated | 7/30 (23%), 5/28 (18%), 22%, not calculated | 11/26 (42%), 7/28 (25%), 40%, not calculated | 7/30 (23%), 7/30 (23%), 0% | 13/30 (43%), 9/30 (30%), 30%, not calculated | 22/30 (73%), 23/30 (77%), -5%, not calculated | 13/30 (43%), 10/29 (34%), 21%, not calculated | 22/30 (73%), 14/29 (48%), 34%, not calculated | 13/30 (43%), 9/29 (31%), 28%, not calculated | 3/29 (10%), 1/29 (3%), 70%, not calculated | 4/29 (14%), 7/30 (23%), -64%, not calculated | 22/30 (73%), 3/28 (11%), 85%, not calculated | 13/30 (43%), 1/30 (3%), 93%, not calculated | 22/30 (73%), 25/30 (83%), -14%, not calculated | 
CCOC(=O)/C=C(C)/C=C/C=C(C)/C=C/c1c(C)cc(O)c(C)c1C |  |  |  |  |  |  |  |  |  |  |  |  |  |  | 90%, 95%, -6%, not significant
